PubChem BioAssay (NCI)
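Results reflect a 48-hour exposure of cells in 96-well plates to compound at five concentrations. GI50 is the concentration that inhibits growth by half. Definition used: TGI = concentration required for complete inhibition of growth.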

What was measured:
Assay in all cases: inhibition of tumour cell growth, NCI panel, 48 h
[1] = system: SK-MEL-2 melanoma
[2] = system: SR leukemia
[3] = system: MOLT-4 leukemia
[4] = system: SK-OV-3 ovarian
[5] = system: RXF 393 renal
[6] = system: U251 CNS

SMILES | GI50 [1] [µM] | TGI [1] [µM] | GI50 [2] [µM] | TGI [2] [µM] | GI50 [3] [µM] | TGI [3] [µM] | GI50 [4] [µM] | TGI [4] [µM] | GI50 [5] [µM] | TGI [5] [µM] | GI50 [6] [µM] | TGI [6] [µM]
CCN(CC)CCNc1ccc(C)c2sc3cc(Cl)ccc3c(=O)c12 | 1.88 | 3.72 | 1.6 | 3.57 | 1.55 | 3.28 | 1.77 | 4.88 | 1.57 | 3.05 | 1.73 | 3.22
CCOC(=O)C1=C(C)N=c2s/c(=C\c3ccccc3O)c(=O)n2C1c1ccc(OC)c2ccccc12 (centres undefined) | 32.3 | 87.1 | 4.4 | 58.8 | 15.5 | > 100 | 14 | 27 | 4.3 | 17.3 | 2.35 | 6.58
COC(=O)[C@@H](C)C[C@H](Cc1cn(C)c2ccccc12)NC(=O)c1csc([C@@H](C[C@H](C(C)C)N(C)C(=O)[C@@H](NC(=O)[C@H]2CCCCN2C)C(C)C)OC(C)=O)n1 | 0.0115 | > 16.7 | 0.00298 | > 16.7 | 0.013 | > 16.7 | 0.0602 | > 16.7 | 0.023 | > 16.7 | 0.0102 | > 16.7
Nc1cc(F)ccc1CC(=O)O | – | > 100 | – | > 100 | – | > 100 | – | > 100 | – | > 100 | – | > 100
O=C(c1ccco1)c1nc2cc(C(F)(F)F)ccc2nc1C(F)(F)F | > 100 | > 100 | 40.5 | > 100 | > 100 | > 100 | > 100 | > 100 | > 100 | > 100 | > 100 | > 100
O=C1c2[nH]cc(CNC3CN4CCC3CC4)c2C(=O)c2c1c(O)c1ccccc1c2O (centres undefined) | 4.02 | 18.6 | – | – | – | 1.72 | 3.71 | 20.1 | 5.28 | 84.3 | 1.21 | 2.58
CC[C@H]1CN2CCc3cc(OC)c(OC)cc3C2C[C@@H]1CC1NCCc2cc(OC)c(OC)cc21 (some centres undefined) | – | 0.0542 | – | – | – | 3.75 | – | 0.292 | – | 0.131 | – | –
COC(=O)/C(=N\NC(N)=O)C(C(=O)C(=O)Nc1ccccc1OC)c1nc2ccc([N+](=O)[O-])cc2[nH]c1=O (centres undefined) | – | > 100 | – | > 100 | – | – | – | > 100 | – | > 100 | – | > 100
COc1ccc(N=Cc2c(O)ccc3c2oc2cc(Cl)c(O)c(Cl)c23)cc1 | 5.92 | 22.9 | 10.9 | 51.7 | 4.84 | 30 | 15.9 | 49.5 | 14.2 | 31.4 | 5.39 | 34.9
CCC(CC)c1nc(Nc2ccc(C(=O)OC)cc2)c2ccccc2n1 | 9.39 | 20 | 10.1 | 26.7 | 1.41 | 3.67 | 9.54 | 19 | 8.34 | 21.3 | 8.5 | 19
N#Cc1c(NC(=O)NCc2ccccc2)sc2c1CCCC2 | 5.08 | > 100 | 0.35 | > 100 | 0.487 | > 100 | 9.2 | > 100 | 0.481 | 14.1 | 0.66 | > 81.7
CCOC(=O)c1ccc(Nc2sc(C(=O)c3ccc(Br)cc3)c(N)c2C#N)cc1 | 1.27 | > 100 | 0.658 | > 45.5 | 4.61 | > 100 | 1.04 | > 100 | 1.78 | > 100 | 1.49 | > 100
O=C(/C=C/c1ccco1)c1cc(F)c(Cl)cc1Cl | 18.1 | 34.6 | 23 | > 100 | – | – | 24.5 | 80.1 | 19.1 | 37.7 | 19.3 | 46
CCCCCCCC/C=C/CCCCCCCC1=NC(C)(C)CN1CC(C)O (centres undefined) | 2.28 | 5.21 | 0.7 | 2.65 | 2.05 | 4.28 | 7.64 | 21.1 | 1.53 | 3.39 | 1.64 | 3.02
CN(C)c1ccc(/C=C/c2ccnc3c(O)cccc23)cc1 | 0.301 | 11 | 0.321 | > 100 | 0.357 | > 100 | 0.461 | > 100 | 0.813 | 15.1 | 0.338 | > 100
CN1CCC(COc2cnc(-c3cccc(Cn4nc(-c5cccc(C#N)c5)ccc4=O)c3)nc2)CC1 | 6.66 | 15.1 | 2.08 | 4.49 | 2.53 | 6.62 | 5.93 | 18.5 | 1.49 | 3.08 | 2.43 | 7.68
O=C1CC[C@H](N2C(=O)c3cccc4c(Cc5ccc(CN6CCOCC6)cc5)ccc2c34)C(=O)N1 | > 100 | > 100 | 4.03 | > 100 | 27.6 | > 100 | > 100 | > 100 | 2.45 | > 100 | 60.3 | > 100
C[C@]12CC[C@@H]3c4cc(OC(F)F)c(O)cc4CC[C@H]3[C@@H]1CC[C@@H]2OS(N)(=O)=O | 0.88 | 55.8 | 0.422 | > 100 | 0.598 | > 100 | 2.77 | 98 | 0.315 | 6.42 | 0.549 | 19.5
O=C1C(Cl)=C(Sc2nnc3c4ccccc4c4ccccc4c3n2)C(=O)c2ccccc21 | – | 34.8 | – | > 56 | – | 34.4 | – | 55.3 | – | 32 | – | 28.4
O=C(O)/C=C/C(=O)N1Cc2cc3ccccc3nc2C1 | – | > 100 | – | > 100 | – | > 100 | – | > 100 | – | > 100 | – | > 100
C[n+]1c(/C=C/c2c[nH]c3ccccc23)ccc2ccccc21 | 16.1 | 30.6 | 5.84 | 30 | 4.03 | 15.5 | 14.7 | 90.8 | 13.9 | 27.9 | 8.75 | 22.5

SMILES | GI50 [1] [µM] | TGI [1] [µM] | GI50 [2] [µM] | TGI [2] [µM] | GI50 [3] [µM] | TGI [3] [µM] | GI50 [4] [µM] | TGI [4] [µM] | GI50 [5] [µM] | TGI [5] [µM] | GI50 [6] [µM] | TGI [6] [µM]
C=C(C)[C@@H]1CC[C@]2(COCCC#N)CC[C@]3(C)[C@H](CC[C@@H]4[C@@](C)(CCCNCCC#N)[C@H](C(=C)C)CC[C@]43C)[C@@H]12 | 10.7 | 25.4 | 8.48 | 42.3 | 7.72 | 25 | > 50 | > 50 | 7.44 | 14.5 | 13.9 | 47.1
COc1cc2nccc(Oc3ccc(NC(=O)NC4CC4)c(Cl)c3)c2cc1C(N)=O | 19.1 | 48.6 | 30.5 | > 100 | 16.7 | > 100 | 17.5 | 94.6 | 12.4 | 43.4 | 11.5 | 42.8
Cc1c(O)c2ccccc2oc1=O | – | > 100 | – | > 100 | – | > 100 | – | – | – | > 100 | – | > 100
Cc1cc(Cl)cc2c(N=Nc3ccc(S(N)(=O)=O)cc3)c(O)[nH]c12 | > 25 | > 25 | > 25 | > 25 | > 25 | > 25 | > 25 | > 25 | > 14.5 | > 25 | > 25 | > 25
CC(C)N1CC2CN(Cc3ccccc3)CC(C1)C2=O | – | > 100 | – | > 100 | – | > 100 | – | > 100 | – | > 100 | – | > 100
Cn1cc(C2=C(c3ccccc3[N+](=O)[O-])C(=O)NC2=O)c2ccccc21 | 2.92 | 9.55 | 2.33 | 12.9 | – | – | 4.79 | > 25 | 1.61 | 7.19 | 1.77 | > 25
COC1=CC(c2ccc[nH]2)=N/C1=C\c1[nH]c(C)c(CC(=O)OCc2ccccc2)c1CCC(=O)OCc1ccccc1 | 0.281 | 0.758 | 0.236 | 0.74 | 0.309 | 2.01 | 0.523 | 3.11 | 0.423 | 2.19 | 0.345 | 1.68
CCOC(=O)c1ccc2c(c1)Cc1cc([N+](=O)[O-])ccc1-2 | – | – | – | – | – | 51.6 | – | > 100 | – | 55.5 | – | > 100
Cc1ccc(NC(=O)c2ccc(CN3CCN(C)CC3)cc2)cc1Nc1nccc(-c2cccnc2)n1 | 22.1 | 54.8 | 4.72 | > 51.3 | 5.11 | 41.4 | 28.7 | 80.9 | 14.2 | 33.3 | 17.7 | 45.1
Nc1ccccc1NC(=O)c1ccc(CNc2nccc(-c3cccnc3)n2)cc1 | 0.481 | 3.71 | 0.268 | – | 0.643 | > 23.2 | 1.37 | > 28.7 | 0.878 | 3.01 | 1.12 | –
COc1cc(/C=C2\C[C@H]3[C@@H]4CC=C5C[C@@H](O)CC[C@]5(C)[C@H]4CC[C@]3(C)[C@H]2O)ccc1OCCN1CCCC1 | 16.4 | > 50 | – | – | 2.46 | 11.3 | – | – | 9.81 | 23.9 | 12.8 | 40.4
CCOC(=O)c1ccccc1OC(=O)NNc1ccccc1 | – | > 29.3 | 1.47 | > 100 | 0.465 | > 100 | > 79.9 | > 100 | > 100 | > 100 | > 35.6 | > 100
CO/C=C/C(=O)c1cc2cnc3c(=N)cc(NC(=O)C(C)C)c([nH]1)c23 | 0.0907 | 0.299 | 0.0489 | 0.427 | 0.0159 | 0.166 | 0.146 | 0.873 | 0.0301 | 0.246 | 0.0889 | 0.61
NC1=CC(=O)c2cccnc2C1=O | 1.63 | 3.14 | 0.729 | 3.69 | 1.01 | 3.45 | 4.26 | 17.8 | 1.67 | 3.2 | 1.46 | 2.83
CC(C)(C)N1CCC1CN (centres undefined) | > 100 | > 100 | > 100 | > 100 | > 100 | > 100 | > 100 | > 100 | > 100 | > 100 | > 100 | > 100
COc1ccc(/C=C(/C(=O)N2CCN(c3ccccc3)CC2)c2cc(OC)c(OC)c(OC)c2)cc1N | 0.725 | > 100 | 0.409 | > 100 | 0.524 | > 100 | 0.472 | > 100 | 0.272 | > 100 | 0.361 | > 100
C=C1CC2CCCC12C=O (centres undefined) | – | – | – | > 10 | – | > 10 | – | > 10 | – | – | – | > 10
C[C@]12CCc3nc(Nc4cccc(O)c4)sc3C1=CC[C@@H]1[C@@H]2CC[C@]2(C)/C(=N\NC(N)=S)CC[C@@H]12 | 2.32 | 7.36 | – | – | 0.765 | 6.9 | 3.21 | 22 | 0.574 | 2.19 | 1.15 | 2.96
NCCCNc1nc2ccccc2c2c(=O)c3cc(F)cc(F)c3sc12 | 2.67 | 7.04 | – | – | – | – | – | – | 1.42 | 2.97 | – | –
CC[C@@H]1[C@@H](C)O[C@@](O)([C@@H](C)[C@H](O)[C@H](C)[C@H]2OC(=O)/C=C/C=C/[C@H](C)[C@@H]([C@@H](C)[C@@H](O)[C@H](C)[C@@]3(O)C[C@@H](O[C@H]4C[C@@H](O)[C@H](O)C(C)O4)[C@H](CC)[C@@H](C)O3)OC(=O)/C=C/C=C/[C@@H]2C)C[C@H]1O[C@@H]1C[C@@H](O)[C@H](O)C(C)O1 (some centres undefined) | 0.0808 | 0.197 | – | – | 0.0933 | 0.219 | 0.072 | 0.189 | 0.0521 | 0.119 | 0.113 | 0.39
